Test results reported in the NIST ThermoML archive (doi:10.1016/j.jct.2009.07.002).

Experiment: isobaric coefficient of expansion
Conditions: Liquid, DSC with Pressure Shift

CCCCCCCCCO [nonan-1-ol]
isobaric coefficient of expansion
Conditions | 278.15 K | 288.15 K | 298.15 K | 308.15 K | 318.15 K | 328.15 K | 338.15 K | 348.15 K
5000 kPa | 0.000819 1/K | 0.000805 1/K | 0.000816 1/K | 0.000829 1/K | 0.000846 1/K | 0.000863 1/K | 0.000886 1/K | 0.000912 1/K
10000 kPa | 0.000795 1/K | 0.000791 1/K | 0.000798 1/K | 0.00081 1/K | 0.000826 1/K | 0.00084 1/K | 0.000858 1/K | 0.000879 1/K
15000 kPa | 0.000786 1/K | 0.000772 1/K | 0.000782 1/K | 0.000792 1/K | 0.000801 1/K | 0.000815 1/K | 0.000831 1/K | 0.000853 1/K
20000 kPa | 0.000759 1/K | 0.000759 1/K | 0.000762 1/K | 0.000773 1/K | 0.000785 1/K | 0.000792 1/K | 0.000807 1/K | 0.000827 1/K
25000 kPa | 0.000741 1/K | 0.000743 1/K | 0.000745 1/K | 0.000753 1/K | 0.000764 1/K | 0.000775 1/K | 0.000789 1/K | 0.000806 1/K
30000 kPa | 0.000733 1/K | 0.000728 1/K | 0.000732 1/K | 0.000736 1/K | 0.000748 1/K | 0.000759 1/K | 0.000773 1/K | 0.000787 1/K
35000 kPa | 0.000719 1/K | 0.000716 1/K | 0.00072 1/K | 0.000723 1/K | 0.000732 1/K | 0.000743 1/K | 0.000754 1/K | 0.000768 1/K
40000 kPa | 0.000704 1/K | 0.000705 1/K | 0.000705 1/K | 0.00071 1/K | 0.000715 1/K | 0.000728 1/K | 0.000736 1/K | 0.000749 1/K
45000 kPa | 0.000693 1/K | 0.000698 1/K | 0.000693 1/K | 0.000695 1/K | 0.000702 1/K | 0.000715 1/K | 0.000722 1/K | 0.000734 1/K
50000 kPa | 0.000685 1/K | 0.000691 1/K | 0.000682 1/K | 0.000684 1/K | 0.00069 1/K | 0.0007 1/K | 0.000708 1/K | 0.000719 1/K
55000 kPa | 0.000672 1/K | 0.000677 1/K | 0.000672 1/K | 0.000673 1/K | 0.000678 1/K | 0.000687 1/K | 0.000695 1/K | 0.000705 1/K

CCCO [propan-1-ol]
isobaric coefficient of expansion
Conditions | 278.15 K | 288.15 K | 298.15 K | 308.15 K | 318.15 K | 328.15 K | 338.15 K | 348.15 K
5000 kPa | 0.000927 1/K | 0.000947 1/K | 0.000967 1/K | 0.001 1/K | 0.00104 1/K | 0.00107 1/K | 0.00111 1/K | 0.00116 1/K
10000 kPa | 0.000901 1/K | 0.000923 1/K | 0.000943 1/K | 0.000975 1/K | 0.001 1/K | 0.00104 1/K | 0.00108 1/K | 0.00112 1/K
15000 kPa | 0.000883 1/K | 0.000902 1/K | 0.00092 1/K | 0.000948 1/K | 0.000976 1/K | 0.00101 1/K | 0.00104 1/K | 0.00108 1/K
20000 kPa | 0.000868 1/K | 0.000884 1/K | 0.000899 1/K | 0.000925 1/K | 0.000947 1/K | 0.000975 1/K | 0.00101 1/K | 0.00105 1/K
25000 kPa | 0.00085 1/K | 0.000867 1/K | 0.000877 1/K | 0.0009 1/K | 0.000922 1/K | 0.00095 1/K | 0.000977 1/K | 0.00101 1/K
30000 kPa | 0.000834 1/K | 0.000848 1/K | 0.000858 1/K | 0.000882 1/K | 0.000899 1/K | 0.000923 1/K | 0.000951 1/K | 0.000984 1/K
35000 kPa | 0.000818 1/K | 0.00083 1/K | 0.000843 1/K | 0.000859 1/K | 0.00088 1/K | 0.000901 1/K | 0.000926 1/K | 0.000958 1/K
40000 kPa | 0.000803 1/K | 0.000816 1/K | 0.000822 1/K | 0.000844 1/K | 0.000854 1/K | 0.000878 1/K | 0.000899 1/K | 0.000927 1/K
45000 kPa | 0.00079 1/K | 0.000801 1/K | 0.000811 1/K | 0.000824 1/K | 0.000839 1/K | 0.000858 1/K | 0.000881 1/K | 0.000906 1/K
50000 kPa | 0.000777 1/K | 0.000786 1/K | 0.000795 1/K | 0.000809 1/K | 0.000822 1/K | 0.000838 1/K | 0.000862 1/K | 0.000885 1/K
55000 kPa | 0.000767 1/K | 0.000775 1/K | 0.000781 1/K | 0.000794 1/K | 0.000806 1/K | 0.000821 1/K | 0.000837 1/K | 0.000861 1/K
